Laboratory results reported in US8148347B2, “Inhibition of interaction of PSD93 and PSDS95 with nNOS and NMDA receptors” (The Johns Hopkins University, priority 2000, dated 2012).
“Also recorded” adds a separate entry of the source.

Experiments:
PSD-95/nNOS [1] = experiment: yeast two-hybrid growth in −LTH medium, pGAD424-PSD-95 and pGBT9-nNOS; assay type: cell-based
Text: (§1) We utilized the yeast two-hybrid system to investigate the effects of halothane on protein interactions within the NMDA receptor signaling complex. The PDZ domain of nNOS or the C-terminus of NMDA receptor subunit 2B (NR2B) was fused in frame with the GAL4 DNA-binding domain in a yeast vector, pGBT9. The PDZ domain of PSD95 or PSD-93 was fused in frame with the GAL4 activation domain in another yeast vector, pGAD424. Both yeast vectors were co-transformed into the Y190 yeast strain, which was then grown in the absence or presence of halothane at clinically relevant concentrations. Protein-protein interactions were confirmed by both yeast growth on −Leu/−Trp/−His (−LTH) medium and lacz expression. To confirm the yeast two-hybrid results, the GST fusion protein binding assay was performed. The GST-fusion proteins, consisting of the second PDZ domain of PSD-95 or PSD-93, were expressed in bacterial BL21 cells and purified using glutathione-coupled agarose. After preincubation with or without different concentrations of halothane, GST-PSD-95 or GST-PSD-93 was incubated with membrane proteins from rat hippocampus at room temperature for 1 h. After extensive washing, the bound proteins were eluted by boiling in 1×SDS-PAGE sample buffer and detected by immunoblotting.

[2] = system: PSD-95/NMDA receptor subunit 2B (NR2B); experiment: yeast two-hybrid growth in −LTH medium, pGAD424-PSD-95 and pGBT9-2B; assay type: cell-based
Text: as §1

PSD-93/nNOS [3] = experiment: yeast two-hybrid growth in −LTH medium, pGAD424-PSD-93 and pGBT9-nNOS; assay type: cell-based
Text: as §1

[4] = system: PSD-93/NMDA receptor subunit 2B (NR2B); experiment: yeast two-hybrid growth in −LTH medium, pGAD424-PSD-93 and pGBT9-2B; assay type: cell-based
Text: as §1

Y190 yeast strain = experiment: yeast growth in −LT media (cytotoxicity control); assay type: cell-based; conditions: high halothane concentration (3.6%)
Text: Under normal conditions, PSD-95 interacts with nNOS, resulting in good growth of the yeast carrying pGAD424-PSD-95 and pGBT9-nNOS in −LTH medium. […] Rather, the failure of yeast to grow in −LTH media in the presence of halothane must be due to disruption of protein-protein interactions by halothane. […] These findings confirm the yeast two-hybrid results.
as §1, with “The GST-fusion proteins, consisting of the second PDZ domain of PSD-95 or PSD-93, were expressed in bacterial BL21 cells and purified using glutathione-coupled agarose. After preincubation with or without different concentrations of halothane, GST-PSD-95 or GST-PSD-93 was incubated with membrane proteins from rat hippocampus at room temperature for 1 h.” left out

PSD-95/NMDA receptor = target: T1, PSD-95/NMDA receptor (Rattus norvegicus, UniProt P31016); experiment: GST fusion protein binding assay, GST-PSD-95 and NMDA receptors; conditions: preincubation with different concentrations of halothane
T1 construct: The GST-fusion proteins, consisting of the second PDZ domain of PSD-95 or PSD-93; made in house; host or cells: bacterial BL21 cells (GST fusion); partner from rat hippocampal membranes
T1 sequence (P31016 160-246 limits assumed): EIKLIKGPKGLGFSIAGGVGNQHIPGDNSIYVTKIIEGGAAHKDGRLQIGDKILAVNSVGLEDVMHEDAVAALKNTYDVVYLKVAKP
Text: as §1

PSD-95/nNOS [5] = target: T2, PSD-95/nNOS (Rattus norvegicus, UniProt P31016); experiment: GST fusion protein binding assay, GST-PSD-95 and nNOS; conditions: preincubation with different concentrations of halothane
T2 construct: The GST-fusion proteins, consisting of the second PDZ domain of PSD-95 or PSD-93; made in house; host or cells: bacterial BL21 cells (GST fusion); partner from rat hippocampal membranes
T2 sequence (P31016 160-246 limits assumed): as above
Text: as §1

PSD-93/NMDA receptor = experiment: GST fusion protein binding assay, GST-PSD-93 and NMDA receptors; parameters: species or system rat; conditions: preincubation with different concentrations of halothane
Text: as §1, with “Protein-protein interactions were confirmed by both yeast growth on −Leu/−Trp/−His (−LTH) medium and lacz expression.” left out

PSD-93/nNOS [6] = experiment: GST fusion protein binding assay, GST-PSD-93 and nNOS; parameters: species or system rat; conditions: preincubation with different concentrations of halothane
Text: as §1

With `FC(F)(F)C(Cl)Br` (centres unmarked) [halothane] the “growth of the yeast in −LTH media” value (PSD-95/nNOS [1]; dose dependence) was “dose-dependently inhibited”, the “yeast growth in −LTH media” value (PSD-95/nNOS [1]; high concentration (1.3%)) was “completely inhibited yeast growth” and the “growth of yeast clones in −LTH media” value (PSD-95/nNOS [1]; low halothane concentrations (0.4%-0.7%)) was “slowed the growth”. The “growth of the yeast in −LTH media” value [2] was “A similar phenomenon was observed”, the “growth of the yeast in −LTH media” value (PSD-93/nNOS [3]) was “inhibited by halothane in a similar way” and the “growth of the yeast in −LTH media” value [4] was “inhibited by halothane in a similar way”. For the same compound, the “yeast growth in −LT media” value (Y190 yeast strain) was “growth did not differ from yeast grown without halothane”, the “binding of GST-fusion PSD-95 to rat brain NMDA receptors” value (PSD-95/NMDA receptor) was “blocks; also recorded: dose-dependently inhibited” and the “binding of GST-fusion PSD-95 to nNOS” value (PSD-95/nNOS [5]) was “blocks; also recorded: dose-dependently inhibited”. The “binding of GST-fusion PSD-93 to rat brain NMDA receptors” value (PSD-93/NMDA receptor) was “blocks; also recorded: dose-dependently inhibited” and the “binding of GST-fusion PSD-93 to nNOS” value (PSD-93/nNOS [6]) was “blocks; also recorded: dose-dependently inhibited”.
